Structures can show the parent of a compound that is named as a salt.
B1: BMP-7: recombinant human bone morphogenetic protein 7, UniProt P18075 (protein, UniProt P18075 293-431, looked up)
Bone morphogenetic protein 7: STGSKQRSQNRSKTPKNQEALRMANVAENSSSDQRQACKKHELYVSFRDLGWQDWIIAPEGYAAYYCEGECAFPLNSYMNATNHAIVQTLVHFINPETVPKPCCAPTQLNAISVLYFDDSSNVILKKYRNMVVRACGCH

Key:
[1] = system: CD31-cells; test: Light microscopic photos of cell morphology, brown adipocyte differentiation; type: cell-based, human; settings: FIGS. 23A-23H
Description: (§1) Cells were seeded at 10,000 per cm^2 in 0.2% gelatin coated plates (48-well tissue culture, Chemglass #CLS-3500-048), cultured until confluency (2-4 days) at 37° C. in Endothelial cell growth medium-2 (EGM2) (BulletKit growth medium, Lonza #CC-3162) and until differentiation (10-16 more days). After 2 or 3 days in EGM2 medium the cells were induced to differentiate by replacing the medium with an adipogenic medium, which is a modification of the adipogenic medium described by Rodriguez et al. and may or may not contain a differentiation inducing agent (e.g., PPARγ agonist). The MDM described above contains: DMEM/Ham's F-12 50/50 Mix (3.151 g/l, 17.5 mM D-glucose, 3.651 g/l L-glutamine) (Cellgro #10-090-CV), 5 μg/ml (0.86 μM) insulin, 1 μM dexamethasone, 100 μM 3-isobutyl-1-methylxanthine, 0.2 nM 3,3′,5-triiodo-L-thyronine, 10 μg/ml (127 nM) transferrin, and 1% penicillin-streptomycin. If rosiglitazone is used as a differentiation-inducing agent, it can be supplied at 1 μM or any other concentration sufficient to induce differentiation of BAT progenitor cells into adipocytes.
Pictures of cells were taken using a hand-held digital camera (Nikon Coolpix 950) and inverted microscope (Nikon TMS) used for cell culture observations; images were optimized using Adobe Photoshop Elements 8 functions for Auto Contrast and Auto Levels.

[2] = system: CD31-cells (brown adipocyte progenitors); test: Quantification of UCP1 protein by immunohistochemistry (IHC); type: cell-based, human; settings: total intensity of UCP1 signal normalized to cell number
Description: Differentiation of brown adipocyte progenitors into brown adipocytes can be detected through quantification of UCP1 protein by immunohistochemistry (IHC).
Culturing and differentiation of CD31-cells into brown adipocytes were performed using adipogenic differentiation medium lacking (Minimal Differentiation Medium, MDM) or containing 1 μM rosiglitazone (Reference Differentiation Medium, RDM). After 15 days of differentiation cells were fixed with 4% Paraformaldehyde PBS pH 7.4, and incubated with a UCP1 antibody (Abcam ab23841) and Alexafluor 488 goat anti-rabbit antibody to quantify relative UCP1 levels (green) according to standard protocols. Prior to fixation of cells, nuclei were labeled with 5 μM DAPI (blue) for 10 minutes. Each treatment condition was evaluated in triplicate in a 96-well plate corresponding to approximately 360-480 cells for each data point in total. The InCell 1000 Developer Toolbox software was used to develop an automated cell detection script to measure UCP1 signal intensity, using the nuclei and cytoplasm detection algorithms. As a readout, total intensity of UCP1 signal within the cell was used, normalized to cell number.

[3] = system: CD31-cells (BAT progenitor cells isolated from human skeletal muscle); test: Quantification of UCP1 and PPARγ2 mRNA (normalized to cyclophilin A) by multiplexed TaqMan real-time PCR to quantify differentiation into brown adipocytes; type: cell-based
From the text: A robust method, previously disclosed in WO2013071063 and incorporated herein by reference, was used for detection of CD31-cell differentiation into brown adipocytes by simultaneously quantifying mRNA species corresponding to the brown adipocyte marker UCP1, the adipocyte marker PPARγ2, and the “housekeeping” gene cyclophilin A which was used as the internal control.
This method permits analysis of a large number of samples to identify agents that enhance the differentiation of CD31-cells into brown adipocytes. When differentiated into brown adipocytes CD31-cells express much higher levels of UCP1 and PPARγ2 mRNA for a given level of cyclophilin A. UCP1 and PPARγ2 mRNA levels normalized to cyclophilin A mRNA levels give an indication of the level of differentiation of the CD31-cells into brown adipocytes, independent of the total number of cells in the sample.
Quantification of UCP1, PPARγ2 and cyclophilin A mRNA by multiplexed TaqMan real-time PCR was thus used to quantify differentiation of the CD31-cells into brown adipocytes.
as §1, with “The MDM described above contains: DMEM/Ham's F-12 50/50 Mix (3.151 g/l, 17.5 mM D-glucose, 3.651 g/l L-glutamine) (Cellgro #10-090-CV), 5 μg/ml (0.86 μM) insulin, 1 μM dexamethasone, 100 μM 3-isobutyl-1-methylxanthine, 0.2 nM 3,3′,5-triiodo-L-thyronine, 10 μg/ml (127 nM) transferrin, and 1% penicillin-streptomycin.” left out
Total RNA was prepared from cells using PureLink RNA Isolation Kit (Invitrogen #12183-016) First strand cDNA were synthesized using the High Capacity cDNA Reverse Transcription kit (Applied Biosystems, Foster City, Calif.) and random primers.
Quantitative real-time PCR was performed using an Applied Biosystems StepOnePlus™ instrument, TaqMan Gene Expression Master Mix (Applied Biosystems #4369016), and custom TaqMan gene expression probes and primers for human uncoupling protein-1 “UCP1” (GenBank NM_021833) and for human peptidylprolyl isomerase A “cyclophilin A” (GenBank NM_021130).
Cyclophilin A was used as a control to account for any variations due to the efficiency of reverse transcription. Arbitrary units were determined by normalizing target mRNA levels to cyclophilin A mRNA levels (based on Cts).

Molecule	brown adipocyte differentiation (light microscopy) [1]	UCP1 protein signal (IHC), differentiation of brown adipocyte progenitors into brown adipocytes [2]	differentiation of BAT progenitor cells into brown adipocytes and/or expression of UCP1, PPARγ2 mRNA [3]
O=C(O)c1cc(-c2ccc(F)cc2F)ccc1O [Diflunisal]	promote brown adipocyte formation	identified using this technique	–
CCCN(CCC)S(=O)(=O)c1ccc(C(=O)O)cc1 [Probenecid]	promote brown adipocyte formation	identified using this technique	–
CCOC(=O)Oc1c(OC)cc(C(=O)O[C@@H]2C[C@@H]3CN4CCc5c([nH]c6cc(OC)ccc56)[C@H]4C[C@@H]3[C@H](C(=O)OC)[C@H]2OC)cc1OC [Syrosingopine]	promote brown adipocyte formation	identified using this technique	–
CCN(CC)CCNC(=O)c1cc(S(C)(=O)=O)ccc1OC [Tiapride hydrochloride]	promote brown adipocyte formation	identified using this technique	–
O=c1c(O)c(-c2ccc(O)cc2)oc2cc(O)cc(O)c12 [kaempferol]	promote brown adipocyte formation	–	promote the differentiation of BAT progenitor cells into brown adipocytes and/or induce the expression of UCP1
B1	promote brown adipocyte formation	–	promote the differentiation of BAT progenitor cells into brown adipocytes and/or induce the expression of UCP1

Source: patent publication US11419916B2, “Methods and compositions for inducing differentiation of human brown adipocyte progenitors” (Energesis Pharmaceuticals, Inc., priority 2014, dated 2022)
